Legend:
Histone deacetylase 2 [1] = molecular target: T1, Histone deacetylase 2 (Homo sapiens, UniProt Q92769); experiment: Inhibition of full length human recombinant C-terminal His-tagged HDAC2 expressed in baculovirus infected sf9 cells using fluorogenic HDAC substrate 3 after 30 mins by fluorescence assay
[2] = molecular target: T2, Protein deacetylase HDAC6 (Homo sapiens, UniProt Q9UBN7); experiment: Inhibition of full length human recombinant N-terminal GST-tagged HDAC6 expressed in baculovirus infected sf9 cells using fluorogenic HDAC substrate 3 after 30 mins by fluorescence assay
T2 sequence (Q9UBN7 whole entry): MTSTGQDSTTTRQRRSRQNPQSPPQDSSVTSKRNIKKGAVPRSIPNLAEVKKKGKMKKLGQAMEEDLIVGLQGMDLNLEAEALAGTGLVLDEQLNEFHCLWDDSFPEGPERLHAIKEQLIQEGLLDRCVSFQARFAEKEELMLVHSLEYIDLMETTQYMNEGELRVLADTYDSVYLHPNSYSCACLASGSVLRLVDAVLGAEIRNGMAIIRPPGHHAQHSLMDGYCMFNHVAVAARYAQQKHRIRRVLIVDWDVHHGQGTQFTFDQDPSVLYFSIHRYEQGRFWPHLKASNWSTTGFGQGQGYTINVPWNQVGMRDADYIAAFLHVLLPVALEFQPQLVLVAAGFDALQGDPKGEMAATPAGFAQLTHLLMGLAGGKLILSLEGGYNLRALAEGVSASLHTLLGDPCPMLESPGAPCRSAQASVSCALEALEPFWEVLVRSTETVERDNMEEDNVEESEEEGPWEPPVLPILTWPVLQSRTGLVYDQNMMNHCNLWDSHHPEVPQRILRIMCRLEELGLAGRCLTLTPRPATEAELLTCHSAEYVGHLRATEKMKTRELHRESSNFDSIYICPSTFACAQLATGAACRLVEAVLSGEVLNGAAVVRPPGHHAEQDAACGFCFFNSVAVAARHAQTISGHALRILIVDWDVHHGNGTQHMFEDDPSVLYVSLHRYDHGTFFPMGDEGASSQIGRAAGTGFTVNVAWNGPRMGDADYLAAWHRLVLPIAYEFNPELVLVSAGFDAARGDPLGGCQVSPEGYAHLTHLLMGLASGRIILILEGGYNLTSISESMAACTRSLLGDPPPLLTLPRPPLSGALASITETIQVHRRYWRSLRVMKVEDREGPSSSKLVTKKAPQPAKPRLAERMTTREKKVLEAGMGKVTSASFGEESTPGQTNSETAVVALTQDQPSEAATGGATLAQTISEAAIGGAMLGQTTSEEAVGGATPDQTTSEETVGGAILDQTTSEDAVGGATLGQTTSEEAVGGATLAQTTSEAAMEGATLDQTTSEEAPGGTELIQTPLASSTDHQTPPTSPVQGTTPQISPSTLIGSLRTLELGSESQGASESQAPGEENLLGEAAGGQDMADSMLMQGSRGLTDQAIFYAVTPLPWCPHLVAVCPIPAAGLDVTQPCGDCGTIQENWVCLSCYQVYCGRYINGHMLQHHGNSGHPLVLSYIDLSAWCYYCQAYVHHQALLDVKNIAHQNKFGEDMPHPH

cells [3] = conditions: Homo sapiens, SH-SY5Y, 2 h, read-out: FC
[4] = molecular target: T3, cGMP-specific 3',5'-cyclic phosphodiesterase (Homo sapiens, UniProt O76074); experiment: Inhibition of full length human recombinant N-terminal GST-tagged PDE5A1 expressed in baculovirus infected sf9 cells using cGMP as substrate after 30 mins by fluorescence assay
[5] = Effective permeability of the compound at 50 uM after 18 hrs by UV spectroscopy based PAMPA; assay type: ADME; conditions: read-out: Peff
cells [6] = conditions: Homo sapiens, SH-SY5Y, 2 h, read-out: FC; remark: listed apart in the source
cells [7] = conditions: Homo sapiens, SH-SY5Y, 2 h, read-out: FC; remark: listed apart in the source
[8] = Cytotoxicity against human THLE2 cells after 72 hrs by vialight cell proliferation assay; assay type: cell-based, THLE-2; conditions: read-out: LC50
Histone deacetylase 1 [9] = molecular target: T4, Histone deacetylase 1 (Homo sapiens, UniProt Q13547); experiment: Inhibition of full length human recombinant C-terminal FLAG/His-tagged HDAC1 expressed in baculovirus infected sf9 cells using fluorogenic HDAC substrate 3 after 30 mins by fluorescence assay
[10] = molecular target: Histone deacetylase 3/Nuclear receptor corepressor 2 (HDAC3/NCoR2) (Homo sapiens, UniProt O15379); experiment: Inhibition of full length human recombinant C-terminal His-tagged HDAC3/N-terminal GST-tagged NCOR2 (95 to 489 residues) expressed in baculovirus infected sf9 cells using fluorogenic HDAC substrate 3 after 30 mins by fluorescence assay
Histone deacetylase 3 = Histone deacetylase 3 (Homo sapiens, UniProt O15379); experiment: Inhibition of HDAC3 (unknown origin)
Histone deacetylase 2 [11] = molecular target: T1, Histone deacetylase 2; assay type: ADME
[12] = molecular target: T2, Protein deacetylase HDAC6; experiment: Inhibition of HDAC6 (unknown origin)
[13] = molecular target: T3, cGMP-specific 3',5'-cyclic phosphodiesterase; experiment: Inhibition of PDE5A (unknown origin)
Histone deacetylase 1 [14] = molecular target: T4, Histone deacetylase 1; experiment: Inhibition of HDAC1 (unknown origin)
[15] = Inhibition of class-1 HDAC in human SH-SY5Y cells assessed as induction of AcH3K9 level at 500 nM after 0.5 to 2 hrs by Western blot analysis; assay type: cell-based; conditions: 0.5 µM
[16] = molecular target: cGMP-inhibited 3',5'-cyclic phosphodiesterase 3A (Homo sapiens, UniProt Q14432); experiment: Inhibition of PDE3A (unknown origin) using FAM-cGMP as substrate by fluorescence assay
Sequence of cGMP-inhibited 3',5'-cyclic phosphodiesterase 3A (Q14432 whole entry): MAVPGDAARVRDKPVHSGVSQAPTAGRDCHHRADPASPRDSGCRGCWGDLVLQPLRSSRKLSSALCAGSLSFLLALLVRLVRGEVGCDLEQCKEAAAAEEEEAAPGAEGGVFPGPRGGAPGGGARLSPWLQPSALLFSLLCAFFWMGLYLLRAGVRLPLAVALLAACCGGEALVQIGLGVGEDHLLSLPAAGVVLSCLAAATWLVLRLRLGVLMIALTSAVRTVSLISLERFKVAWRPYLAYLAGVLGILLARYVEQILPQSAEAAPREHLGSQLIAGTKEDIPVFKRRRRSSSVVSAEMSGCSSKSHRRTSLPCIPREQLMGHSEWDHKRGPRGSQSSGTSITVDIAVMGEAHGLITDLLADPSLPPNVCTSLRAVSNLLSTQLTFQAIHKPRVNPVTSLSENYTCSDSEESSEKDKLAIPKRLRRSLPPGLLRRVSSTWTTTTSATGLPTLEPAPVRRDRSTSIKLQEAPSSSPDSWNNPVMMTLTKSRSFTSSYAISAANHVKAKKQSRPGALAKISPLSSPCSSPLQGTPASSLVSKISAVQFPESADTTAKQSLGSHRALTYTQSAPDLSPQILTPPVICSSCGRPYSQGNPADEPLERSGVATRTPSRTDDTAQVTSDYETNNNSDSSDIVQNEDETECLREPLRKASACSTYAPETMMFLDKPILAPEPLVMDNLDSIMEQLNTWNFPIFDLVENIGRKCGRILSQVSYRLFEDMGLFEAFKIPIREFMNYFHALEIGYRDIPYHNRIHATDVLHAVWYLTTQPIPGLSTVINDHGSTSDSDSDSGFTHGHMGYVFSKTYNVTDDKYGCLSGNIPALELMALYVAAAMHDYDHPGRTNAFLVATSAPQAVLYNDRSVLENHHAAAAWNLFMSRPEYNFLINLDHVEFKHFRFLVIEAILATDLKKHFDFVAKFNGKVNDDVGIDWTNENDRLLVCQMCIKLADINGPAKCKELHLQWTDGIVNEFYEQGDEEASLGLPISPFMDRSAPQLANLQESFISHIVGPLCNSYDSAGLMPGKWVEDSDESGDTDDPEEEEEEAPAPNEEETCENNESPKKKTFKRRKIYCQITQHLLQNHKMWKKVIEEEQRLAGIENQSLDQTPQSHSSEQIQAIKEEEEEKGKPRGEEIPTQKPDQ

T1 sequence (Q92769 whole entry): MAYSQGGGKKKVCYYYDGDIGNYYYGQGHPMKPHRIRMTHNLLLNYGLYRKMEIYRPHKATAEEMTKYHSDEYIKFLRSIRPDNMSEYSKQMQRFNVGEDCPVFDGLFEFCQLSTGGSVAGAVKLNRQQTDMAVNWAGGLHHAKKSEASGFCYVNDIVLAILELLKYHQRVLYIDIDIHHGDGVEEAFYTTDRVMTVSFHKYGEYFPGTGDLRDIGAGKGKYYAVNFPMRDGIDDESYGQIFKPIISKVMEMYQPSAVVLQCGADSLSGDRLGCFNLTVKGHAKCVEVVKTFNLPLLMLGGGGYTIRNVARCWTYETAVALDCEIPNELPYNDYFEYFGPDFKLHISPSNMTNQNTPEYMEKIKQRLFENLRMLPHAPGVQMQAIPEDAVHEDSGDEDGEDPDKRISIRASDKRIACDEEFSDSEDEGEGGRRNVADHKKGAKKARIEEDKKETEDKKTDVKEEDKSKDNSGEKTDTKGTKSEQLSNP
T4 sequence (Q13547 whole entry, the tested form may be a part): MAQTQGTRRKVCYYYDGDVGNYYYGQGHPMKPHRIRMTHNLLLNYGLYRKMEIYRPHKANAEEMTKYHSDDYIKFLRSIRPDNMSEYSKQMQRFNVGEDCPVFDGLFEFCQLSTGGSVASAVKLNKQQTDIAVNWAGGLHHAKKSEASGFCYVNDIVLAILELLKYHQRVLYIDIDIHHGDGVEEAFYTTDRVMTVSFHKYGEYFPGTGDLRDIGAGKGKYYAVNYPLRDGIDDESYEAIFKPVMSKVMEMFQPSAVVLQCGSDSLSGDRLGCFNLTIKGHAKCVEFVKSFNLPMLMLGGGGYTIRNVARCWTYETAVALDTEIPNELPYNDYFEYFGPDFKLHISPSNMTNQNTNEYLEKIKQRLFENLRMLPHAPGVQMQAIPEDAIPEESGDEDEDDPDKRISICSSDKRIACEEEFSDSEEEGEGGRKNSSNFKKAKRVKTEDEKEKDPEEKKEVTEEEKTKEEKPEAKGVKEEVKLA
Sequence of Histone deacetylase 3/Nuclear receptor corepressor 2 (HDAC3/NCoR2) (O15379 whole entry, the tested form may be a part): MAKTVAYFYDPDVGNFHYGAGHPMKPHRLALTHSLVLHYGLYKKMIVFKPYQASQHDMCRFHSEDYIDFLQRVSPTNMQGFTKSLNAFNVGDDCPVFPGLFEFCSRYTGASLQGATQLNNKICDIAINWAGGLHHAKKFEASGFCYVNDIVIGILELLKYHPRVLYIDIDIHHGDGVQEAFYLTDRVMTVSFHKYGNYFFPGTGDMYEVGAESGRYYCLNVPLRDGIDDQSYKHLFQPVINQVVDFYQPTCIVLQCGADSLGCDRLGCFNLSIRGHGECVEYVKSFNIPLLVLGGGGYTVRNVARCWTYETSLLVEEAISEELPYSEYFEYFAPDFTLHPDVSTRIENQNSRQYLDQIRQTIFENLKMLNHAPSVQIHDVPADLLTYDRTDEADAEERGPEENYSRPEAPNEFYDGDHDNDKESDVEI
Sequence of Histone deacetylase 3/Nuclear receptor corepressor 2 (HDAC3/NCoR2) (Q9Y618 whole entry, further chain, the tested form may be a part): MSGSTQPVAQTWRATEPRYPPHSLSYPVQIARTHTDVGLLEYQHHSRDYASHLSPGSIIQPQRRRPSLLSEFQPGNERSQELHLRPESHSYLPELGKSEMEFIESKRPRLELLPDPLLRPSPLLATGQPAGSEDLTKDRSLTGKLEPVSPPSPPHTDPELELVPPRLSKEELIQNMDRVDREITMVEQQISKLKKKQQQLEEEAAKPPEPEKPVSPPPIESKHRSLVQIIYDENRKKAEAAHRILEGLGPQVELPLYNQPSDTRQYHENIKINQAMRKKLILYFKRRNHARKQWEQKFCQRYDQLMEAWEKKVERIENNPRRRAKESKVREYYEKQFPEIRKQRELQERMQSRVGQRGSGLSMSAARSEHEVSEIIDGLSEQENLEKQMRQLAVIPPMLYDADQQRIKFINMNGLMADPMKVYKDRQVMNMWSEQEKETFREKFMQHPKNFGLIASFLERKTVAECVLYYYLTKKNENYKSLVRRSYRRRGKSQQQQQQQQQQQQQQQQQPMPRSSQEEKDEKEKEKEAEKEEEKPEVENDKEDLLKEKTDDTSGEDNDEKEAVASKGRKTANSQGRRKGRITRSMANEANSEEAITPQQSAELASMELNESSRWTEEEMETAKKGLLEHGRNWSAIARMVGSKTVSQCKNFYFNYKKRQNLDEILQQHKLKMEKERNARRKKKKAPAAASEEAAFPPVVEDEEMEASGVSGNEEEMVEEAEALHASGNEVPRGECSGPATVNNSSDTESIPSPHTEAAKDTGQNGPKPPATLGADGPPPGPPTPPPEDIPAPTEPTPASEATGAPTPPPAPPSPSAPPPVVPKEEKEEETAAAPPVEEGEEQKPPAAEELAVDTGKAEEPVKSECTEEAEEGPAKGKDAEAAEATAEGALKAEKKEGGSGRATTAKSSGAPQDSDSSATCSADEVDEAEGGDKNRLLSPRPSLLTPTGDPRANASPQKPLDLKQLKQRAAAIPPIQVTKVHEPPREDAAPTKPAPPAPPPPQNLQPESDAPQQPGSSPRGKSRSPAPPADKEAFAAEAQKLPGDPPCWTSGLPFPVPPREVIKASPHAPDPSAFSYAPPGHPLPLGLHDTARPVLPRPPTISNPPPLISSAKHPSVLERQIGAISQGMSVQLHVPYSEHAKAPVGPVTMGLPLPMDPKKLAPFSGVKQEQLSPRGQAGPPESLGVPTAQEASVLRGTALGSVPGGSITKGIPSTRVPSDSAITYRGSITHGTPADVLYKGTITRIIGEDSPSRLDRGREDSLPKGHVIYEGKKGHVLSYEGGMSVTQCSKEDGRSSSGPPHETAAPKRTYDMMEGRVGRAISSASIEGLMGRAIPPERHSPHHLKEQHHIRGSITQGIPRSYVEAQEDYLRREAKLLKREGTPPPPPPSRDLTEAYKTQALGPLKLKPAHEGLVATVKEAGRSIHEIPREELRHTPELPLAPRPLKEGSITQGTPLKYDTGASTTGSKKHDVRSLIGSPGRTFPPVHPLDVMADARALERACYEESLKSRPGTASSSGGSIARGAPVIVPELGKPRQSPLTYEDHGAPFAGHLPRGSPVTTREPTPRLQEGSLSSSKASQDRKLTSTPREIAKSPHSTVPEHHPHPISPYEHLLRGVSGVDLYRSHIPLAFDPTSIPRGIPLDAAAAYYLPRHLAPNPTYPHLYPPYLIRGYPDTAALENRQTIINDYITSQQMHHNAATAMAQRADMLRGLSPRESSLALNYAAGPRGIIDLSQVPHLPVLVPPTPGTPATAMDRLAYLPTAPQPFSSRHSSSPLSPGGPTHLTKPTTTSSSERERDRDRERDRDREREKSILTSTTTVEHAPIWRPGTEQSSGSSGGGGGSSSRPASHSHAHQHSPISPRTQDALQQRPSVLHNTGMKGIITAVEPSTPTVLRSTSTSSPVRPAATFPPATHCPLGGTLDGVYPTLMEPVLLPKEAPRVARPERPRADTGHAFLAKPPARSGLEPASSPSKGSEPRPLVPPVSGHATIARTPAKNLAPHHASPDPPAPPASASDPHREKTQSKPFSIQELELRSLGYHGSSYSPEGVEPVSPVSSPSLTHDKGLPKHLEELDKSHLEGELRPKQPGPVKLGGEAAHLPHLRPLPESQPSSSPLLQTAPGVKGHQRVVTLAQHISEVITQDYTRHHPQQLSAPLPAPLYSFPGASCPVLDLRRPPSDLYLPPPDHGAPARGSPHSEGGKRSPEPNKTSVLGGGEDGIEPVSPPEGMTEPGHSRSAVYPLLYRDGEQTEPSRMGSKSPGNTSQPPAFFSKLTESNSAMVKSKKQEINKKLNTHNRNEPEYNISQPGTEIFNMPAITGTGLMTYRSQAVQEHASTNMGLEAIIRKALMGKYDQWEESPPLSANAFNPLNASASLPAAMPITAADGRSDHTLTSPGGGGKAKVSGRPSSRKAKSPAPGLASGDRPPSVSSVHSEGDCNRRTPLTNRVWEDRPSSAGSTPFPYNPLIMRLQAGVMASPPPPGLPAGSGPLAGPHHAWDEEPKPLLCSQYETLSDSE
Sequence of Histone deacetylase 3 (O15379 whole entry): as the sequence (O15379 whole entry, the tested form may be a part) above

Row | Structure (SMILES) | IC50 (Histone deacetylase 2 [1]) [nM] | IC50 [2] [nM] | fold induction at 0.5 µM (cells [3]) | IC50 [4] [nM] | Papp at 18 h, 50 µM [5] [×10⁻⁶ cm/s] | fold induction at 1 µM (cells [6]) | fold induction at 0.1 µM (cells [7]) | CC50 at 72 h [8] [nM] | IC50 (Histone deacetylase 1 [9]) [nM] | other results
1 | CCCc1nc(C)c2c(=O)[nH]c(-c3cc(Cc4ccc(C(=O)NO)cc4)ccc3OCC)nn12 | 5190 | 256 | 0.9 | 13 | 1.86 | 1.3 | 0.4 | 26700 | 1830 | –
2 | CCCc1nn(C)c2c(=O)[nH]c(-c3cc([C@H]4CC[C@H](C(=O)NO)CC4)ccc3OCC)nc12 | > 20000 | 5440 | – | 190 | – | – | – | – | 10200 | –
3 | CCCc1nc(C)c2c(=O)[nH]c(-c3cc(Cc4ccc(C(=O)NO)s4)ccc3OCC)nn12 | 4390 | 98 | 0.9 | 3 | 1.6 | 0.8 | 0.7 | 6940 | 793 | –
4 | CCCc1nn(C)c2c(=O)[nH]c(-c3cc(Cc4ccc(C(=O)NO)cc4)ccc3OCC)nc12 | 3860 | 62 | 3.2 | 48 | 2.16 | 6.5 | 1.1 | 14200 | 673 | IC50 [10]: 1350 nM
5 | CCCc1nn(C)c2c(=O)[nH]c(-c3cc(Nc4ccc(C(=O)NO)cc4)ccc3OCC)nc12 | > 20000 | 66 | – | 2 | – | – | – | – | 490 | –
6 | CCCc1nn(C)c2c(=O)[nH]c(-c3cc(Cc4ccc(C(=O)NO)cc4OC)ccc3OCC)nc12 | > 20000 | > 20000 | – | 47 | – | – | – | – | > 20000 | –
7 | CCCc1nn(C)c2c(=O)[nH]c(-c3cc(Cc4ccc(C(=O)NO)c(OC)c4)ccc3OCC)nc12 | > 20000 | > 20000 | – | 144 | – | – | – | – | > 20000 | –
8 | CCCc1nc(C)c2c(=O)[nH]c(-c3cc(CC4CC(C(=O)NO)C4)ccc3OCC)nn12 (centres undefined) | – | – | – | – | – | – | – | – | – | IC50 (Histone deacetylase 3): 854 nM; IC50 (Histone deacetylase 2 [11]): 1260 nM; IC50 [12]: 110 nM; IC50 [13]: 5 nM; IC50 (Histone deacetylase 1 [14]): 286 nM
9 | CCCc1nn(C)c2c(=O)[nH]c(-c3cc(Cc4ccc(CC(=O)NO)cc4)ccc3OCC)nc12 | > 20000 | 162 | – | 15 | 2.94 | – | – | 5490 | > 20000 | IC50 [10]: > 20000 nM
10 | CCCc1nn(C)c2c(=O)[nH]c(-c3cc(-c4ccc(CC(=O)NO)cc4)ccc3OCC)nc12 | > 20000 | 815 | 0.8 | 10 | 1.97 | 1.2 | 0.6 | 15400 | > 20000 | –
11 | CCCc1nn(C)c2c(=O)[nH]c(-c3cc(C4=CCC(C(=O)NO)CC4)ccc3OCC)nc12 (centres undefined) | > 20000 | 340 | – | 27 | – | – | – | – | 2880 | –
12 | CCCc1nn(C)c2c(=O)[nH]c(-c3cc(Cc4ccc(C(=O)NO)o4)ccc3OCC)nc12 | 17500 | 168 | – | 3 | – | – | – | – | 2230 | IC50 [10]: > 20000 nM
13 | CCCc1nn(C)c2c(=O)[nH]c(-c3cc(Cc4ccc(C(=O)NO)cc4F)ccc3OCC)nc12 | 14600 | 87 | 1.1 | 149 | 3.7 | 1.6 | 0.9 | 16500 | 2030 | –
14 | CCCc1nn(C)c2c(=O)[nH]c(-c3cc(-c4ccc(C(=O)NO)s4)ccc3OCC)nc12 | 4800 | 37 | 2.5 | 7 | 2.82 | 2.7 | 1.1 | 2180 | 387 | –
15 | CCCc1nn(C)c2c(=O)[nH]c(-c3cc(C4=CCC(CC(=O)NO)CC4)ccc3OCC)nc12 (centres undefined) | > 20000 | 217 | – | 14 | – | – | – | – | 1810 | –
16 | CCCc1nn(C)c2c(=O)[nH]c(-c3cc(C4CCC(C(=O)NO)CC4)ccc3OCC)nc12 (centres undefined) | > 20000 | 3110 | – | 146 | – | – | – | – | 8380 | –
17 | CCCc1nn(C)c2c(=O)[nH]c(-c3cc(C(O)c4ccc(C(=O)NO)cc4)ccc3OCC)nc12 (centres undefined) | 1110 | 89 | – | 10 | – | – | – | – | 335 | –
18 | CCCc1nn(C)c2c(=O)[nH]c(-c3cc(C(OC)c4ccc(C(=O)NO)cc4)ccc3OCC)nc12 (centres undefined) | 1110 | 77 | – | 20 | – | – | – | – | 357 | –
19 | CN1CCc2c(c3ccccc3n2Cc2ccc(C(=O)NO)cc2)C1 [TUBASTATIN A] | – | – | – | – | 1.77 | – | – | […] | – | inhibition (INH) [15]: Not Active
20 | CCCc1nc(C)c2c(=O)[nH]c(-c3cc(S(=O)(=O)N4CCN(CC)CC4)ccc3OCC)nn12 | – | – | – | – | 2.14 | – | – | > 100000 | – | –
21 | CCCc1nn(C)c2c(=O)[nH]c(-c3cc(C(=O)c4ccc(C(=O)NO)s4)ccc3OCC)nc12 | 799 | 192 | – | 3 | – | – | – | – | 276 | –
22 | CCCc1nn(C)c2c(=O)[nH]c(-c3cc(-c4ccc(C(=O)NO)cc4)ccc3OCC)nc12 | 2550 | 42 | 1.7 | 1 | 2.68 | 3.6 | 0.8 | 8830 | 326 | –
23 | CCCc1nn(C)c2c(=O)[nH]c(-c3cc(S(=O)(=O)N4CCN(C)CC4)ccc3OCC)nc12 | – | – | – | – | – | – | – | > 100000 | – | –
24 | CCCc1nn(C)c2c(=O)[nH]c(-c3cc([C@H]4CC[C@@H](C(=O)NO)CC4)ccc3OCC)nc12 | > 20000 | 48 | 1.8 | 53 | 1.68 | 5.4 | 0.7 | 16000 | 937 | –
25 | CCCc1nn(C)c2c(=O)[nH]c(-c3cc(OCc4ccc(C(=O)NO)cc4)ccc3OCC)nc12 | 11400 | 33 | – | 79 | – | – | – | – | 1080 | –
26 | CCCc1nn(C)c2c(=O)[nH]c(-c3cc(N4CCC(C(=O)NO)CC4)ccc3OCC)nc12 | > 20000 | 1180 | – | 36 | – | – | – | – | 7200 | –
27 | CCCc1nn(C)c2c(=O)[nH]c(-c3cc(Cc4ccc(C(=O)NO)c(F)c4)ccc3OCC)nc12 | > 20000 | 142 | 2.7 | 31 | 2.84 | 1.4 | 2 | 3510 | 1110 | –
28 | CCCc1nn(C)c2c(=O)[nH]c(-c3cc(CC4CC(C(=O)NO)C4)ccc3OCC)nc12 (centres undefined) | – | – | – | – | – | – | – | – | – | IC50 [16]: 1800 nM

Source: ChEMBL document CHEMBL4196089, “Design, synthesis, biological evaluation and in vivo testing of dual phosphodiesterase 5 (PDE5) and histone deacetylase 6 (HDAC6)-selective inhibitors for the treatment of Alzheimer's disease” (Eur J Med Chem, 2018)
